# According to ChEMBL document CHEMBL6074711, “Design, Synthesis, and Activity Evaluation of C-23-Modified 5-O-Mycaminosyltylonolide Derivatives” (ACS Med Chem Lett, 2024):
# Columns and labels:
# [1] = test system: Staphylococcus aureus; experiment: Antibacterial activity against Staphylococcus aureus ATCC25923 incubated for 16 to 20 hrs by broth microdilution method; assay type: functional; details: time 16-20 hrs
# [2] = test system: Escherichia coli; experiment: Antibacterial activity against Escherichia coli ATCC25922 incubated for 16 to 20 hrs by broth microdilution method; assay type: functional; details: time 16-20 hrs
# [3] = test system: Enterococcus faecalis; experiment: Antibacterial activity against Enterococcus faecalis ATCC29212 incubated for 16 to 20 hrs by broth microdilution method; assay type: functional; details: time 16-20 hrs
# [4] = test system: Stenotrophomonas maltophilia; experiment: Antibacterial activity against Stenotrophomonas maltophilia ATCC17808 incubated for 16 to 20 hrs by broth microdilution method; assay type: functional; details: time 16-20 hrs
# [5] = test system: Staphylococcus aureus; experiment: Antibacterial activity against drug-resistant Staphylococcus aureus clinical isolate M20 incubated for 16 to 20 hrs by broth microdilution method; assay type: functional; details: time 16-20 hrs
# [6] = test system: Escherichia coli; experiment: Antibacterial activity against drug-resistant Escherichia coli clinical isolate 1322 incubated for 16 to 20 hrs by broth microdilution method; assay type: functional; details: time 16-20 hrs
# [7] = test system: Escherichia coli; experiment: Antibacterial activity against drug-resistant Escherichia coli clinical isolate 1333 incubated for 16 to 20 hrs by broth microdilution method; assay type: functional; details: time 16-20 hrs
# [8] = test system: Staphylococcus aureus; experiment: Bactericidal activity against Staphylococcus aureus ATCC25923 incubated for 20 to 24 hrs; assay type: functional; details: time 20-24 hrs
# [9] = test system: Staphylococcus aureus; experiment: Antibacterial activity against Staphylococcus aureus ATCC25923 incubated for 20 to 24 hrs; assay type: functional; details: time 20-24 hrs
# [10] = test system: Staphylococcus aureus; experiment: Ratio of MBC to MIC for Staphylococcus aureus ATCC25923 incubated for 20 to 24 hrs; assay type: functional; details: time 20-24 hrs
# [11] = test system: Enterococcus faecalis; experiment: Bactericidal activity against Enterococcus faecalis ATCC29212 incubated for 20 to 24 hrs; assay type: functional; details: time 20-24 hrs
# [12] = test system: Enterococcus faecalis; experiment: Antibacterial activity against Enterococcus faecalis ATCC29212 incubated for 20 to 24 hrs; assay type: functional; details: time 20-24 hrs
# [13] = test system: Enterococcus faecalis; experiment: Ratio of MBC to MIC for Enterococcus faecalis ATCC29212 incubated for 20 to 24 hrs; assay type: functional; details: time 20-24 hrs
# [14] = test system: Escherichia coli; experiment: Antibacterial activity against Escherichia coli ATCC25922 incubated for 20 to 24 hrs; assay type: functional; details: time 20-24 hrs
# [15] = test system: Stenotrophomonas maltophilia; experiment: Bactericidal activity against Stenotrophomonas maltophilia ATCC17808 incubated for 20 to 24 hrs; assay type: functional; details: time 20-24 hrs
# [16] = test system: Stenotrophomonas maltophilia; experiment: Antibacterial activity against Stenotrophomonas maltophilia ATCC17808 incubated for 20 to 24 hrs; assay type: functional; details: time 20-24 hrs
# [17] = test system: Stenotrophomonas maltophilia; experiment: Ratio of MBC to MIC for Stenotrophomonas maltophilia ATCC17808 incubated for 20 to 24 hrs; assay type: functional; details: time 20-24 hrs
# [18] = test system: Escherichia coli; experiment: Antibacterial activity against Escherichia coli ATCC25922 under 10^4 CFU/ml of bacterial inoculum culture by absorbance based assay; assay type: functional
# [19] = test system: Escherichia coli; experiment: Antibacterial activity against Escherichia coli ATCC25922 under 10^5 CFU/ml of bacterial inoculum culture by absorbance based assay; assay type: functional
# [20] = test system: Escherichia coli; experiment: Antibacterial activity against Escherichia coli ATCC25922 under 10^6 CFU/ml of bacterial inoculum culture by absorbance based assay; assay type: functional
# [21] = test system: Escherichia coli; experiment: Antibacterial activity against Escherichia coli ATCC25922 under 10^7 CFU/ml of bacterial inoculum culture by absorbance based assay; assay type: functional
# [22] = test system: Staphylococcus aureus; experiment: Antibacterial activity against Staphylococcus aureus ATCC25923 under 10^4 CFU/ml of bacterial inoculum culture by absorbance based assay; assay type: functional
# [23] = test system: Staphylococcus aureus; experiment: Antibacterial activity against Staphylococcus aureus ATCC25923 under 10^5 CFU/ml of bacterial inoculum culture by absorbance based assay; assay type: functional
# [24] = test system: Staphylococcus aureus; experiment: Antibacterial activity against Staphylococcus aureus ATCC25923 under 10^6 CFU/ml of bacterial inoculum culture by absorbance based assay; assay type: functional
# [25] = test system: Staphylococcus aureus; experiment: Antibacterial activity against Staphylococcus aureus ATCC25923 under 10^7 CFU/ml of bacterial inoculum culture by absorbance based assay; assay type: functional
# [26] = Cytotoxicity against mouse HT-22 cells incubated for 72 hrs by MTT assay; assay type: toxicity, cell-based
# [27] = Selectivity index, ratio of IC50 for mouse HT-22 cells to MIC for methicillin-resistant Staphylococcus aureus; assay type: toxicity, cell-based
structure (smiles),measurement,setting,value
CC[C@H]1OC(=O)C[C@@H](O)[C@H](C)[C@@H](O[C@@H]2O[C@H](C)[C@@H](O)[C@H](N(C)C)[C@H]2O)[C@@H](CCN2CCCCC2)C[C@@H](C)C(=O)/C=C/C(C)=C/[C@@H]1CN1CCCCC1 [TILDIPIROSIN],MIC,[1],16 µg/mL
same,MIC,[2],1 µg/mL
same,MIC,[3],16 µg/mL
same,MIC,[4],1 µg/mL
same,MIC,[5],32 µg/mL
same,MIC,[6],4 µg/mL
same,MIC,[7],16 µg/mL
same,MBC,[8],4 µg/mL
same,MIC,[9],0.5 µg/mL
same,Ratio,[10],8
same,MBC,[11],16 µg/mL
same,MIC,[12],8 µg/mL
same,Ratio,[13],2
same,MIC,[14],32 µg/mL
same,MBC,[15],16 µg/mL
same,MIC,[16],8 µg/mL
same,Ratio,[17],2
same,MIC,[18],> 32 µg/mL
same,MIC,[19],> 32 µg/mL
same,MIC,[20],> 32 µg/mL
same,MIC,[21],> 32 µg/mL
same,MIC,[22],0.5 µg/mL
same,MIC,[23],0.5 µg/mL
same,MIC,[24],1 µg/mL
same,MIC,[25],1 µg/mL
same,IC50 at 72 h,[26],114 µg/mL
same,selectivity ratio,[27],3.56
